Laboratory results: patent publication US12240812B2, “Compound for inhibiting PGE2/EP4 signaling transduction inhibiting, preparation method therefor, and medical uses thereof” (Keythera (Suzhou) Pharmaceuticals Co. Ltd., priority 2019, dated 2025)

Tests used:
EMT-6 breast tumor = assay: Compound 6 and anti-PD-1 antibody alone or in combination on EMT-6 breast tumor in mouse; type: in vivo
Procedure: (§1) Efficacy study on allograft tumor: each 6-week-old female BALB/c mouse was subcutaneously inoculated with 5×10^5 EMT-6 cancer cells. When the tumor reached about 60 to 80 mm^3, the tumor-bearing mice were randomly grouped to the vehicle group or treatment group. When administered alone or in combination, compound 6 was administered orally (p.o.) in a 0.5% MC suspension at a dose of 30 mg/kg, once a day. When administered alone or in combination, anti-PD-1 antibody (Invivomab anti-mouse PD-1 (CD279), Abcam) was administered intraperitoneally at a dose of 20 mg/kg on the first administration, and at a dose of 10 mg/kg on the following administrations once every 5 days. The mice in the vehicle group and PD-1 antibody-administered alone group were orally administered with distilled water every day, and the administration time was the same as that of the compound 6 group. The tumor volume and body weight were recorded 2 to 3 times a week.

[1] = Clearance assay in liver cells; type: in vitro ADME; details: cryopreserved mouse liver cells (hepatocytes); mouse (ICR/CD-1, male) cryopreserved liver cells, 0-120 min
Procedure: • Liver cell type: mouse • Product catalog: M00505 • Species: ICR/CD-1 • Sex: male • Source: BioreoclmationIVT Procedures: • 1. Preparation of working solution • a. 10 mM stock solutions of test compound and positive control were prepared in an appropriate solvent (DMSO). • b. 198 μL of 50% acetonitrile/50% water and 2 μL of 10 mM solution were mixed in a separate conical tube to obtain 100 μM test compound and positive control. • 2. Preparation of liver cells • a. The incubation medium and liver cell thawing medium were placed in a 37° C. water bath, and heated for at least 15 minutes before use. • b. A vial of cryopreserved liver cells was transferred from the storage, ensuring that the vial was kept at a low temperature until the thawing process was conducted. The cells were thawed by placing the vial in a 37° C. water bath and gently shaking the vial for 2 minutes. After completion of the thawing, the vial was sprayed with 70% ethanol and transferred to a biological safety cabinet. • c. The liver cells were transferred to a 50 mL conical tube containing the thawing medium by a large-bore pipette tip. The 50 mL conical tube was placed in a centrifuge and centrifuged at 100 g for 10 minutes. After completion of the centrifugation, the thawing medium was sucked out, and the liver cells were resuspended in enough medium to produce 1.5×10^6 cells/mL. • 3. Procedures of stability assay • a. 198 μL of liver cells were pipetted into each well of a 96-well uncoated plate. The plate was placed in an incubator to warm up the liver cells for 10 minutes. • b. 2 μL of 100 μM test compound or positive control was pipetted into each well of the 96-well uncoated plate to start the reaction. The plate was placed into the incubator at the set time point. • c. The contents of the wells were transferred in 25 μL of aliquots at the time points of 0, 15, 30, 60, 90 and 120 minutes. The aliquot was mixed with 6 volumes (150 μL) of acetonitrile containing internal standard IS (100 nM alprazolam, 200 nM caffeine, and 100 nM tolbutamide) to stop the reaction. The sample was vortex-mixed for 5 minutes, and centrifuged at 3220 g for 45 minutes. An aliquot of 100 μL of supernatant was diluted with 100 μL of ultrapure water, and the mixture was used for LC/MS/MS analysis. All incubations were performed in duplicate. • d. Data analysis
All calculations were performed using Microsoft Excel. The peak area was determined by the extracted ion chromatogram. The in vitro half-life (t½) of the parent compound was determined by the regression analysis of the compound disappearance percentage versus time curve.
The in vitro half-life (t½) was determined by the slope value k: t½=0.693/k
The in vitro t½ (in minutes) was converted to in vitro intrinsic clearance (CLint, in μL/min/0.5×10^6 cells) by using the following equation (average of repeated determinations): […]

CT-26 colorectal tumor [2] = assay: Compound 6 and anti-PD-1 antibody alone or in combination on CT-26 colorectal tumor in mouse; type: in vivo
Procedure: as §1, with “1×10^6 CT26” for “5×10^5 EMT-6”, “30 or 150” for “30”, “5 mg/kg,” for “20 mg/kg on the first administration, and at a dose of 10 mg/kg on the following administrations”, “4 days, for a total of 3 times (Q4D×3).” for “5 days.”

CT-26 colorectal tumor [3] = assay: Inhibitory effect of compound 6 on CT-26 colorectal tumor in mouse; type: in vivo
Procedure: Efficacy study on allograft tumor: each 6-week-old female BALB/c mouse was subcutaneously inoculated with 1×10^6 CT26 cancer cells (National Experimental Cell Resource Sharing Service Platform, Resource Number 3111CCCC). When the tumor reached about 60 to 80 mm^3, the tumor-bearing mice were randomly grouped to the vehicle group or treatment group. Compound 6 was administered orally (p.o.) in a 0.5% MC suspension at a dose of 10, 30 or 150 mg/kg, once a day. The mice in the vehicle group were orally administered with distilled water every day, and the administration time was the same as that of the compound 6 group. The tumor volume and body weight were recorded 2 to 3 times a week.

[4] = test system: PGE2/EP4 signal transduction in MCF7 cells; assay: Determination of MCF7 cAMP (PGE2-stimulated, HTRF); type: cell-based; details: Homo sapiens; MCF7 cells, 10 nM PGE2 stimulation, cAMP HTRF; read-out: MCF7 cAMP IC50
Procedure: • a) MCF7 cells (ATCC, 6000 cells/well/40 μl) were inoculated into a 384-well cell culture plate containing a medium (DMEM containing 10% FBS and 1×PS), and incubated overnight at 37° C. and 5% CO2. • b) The medium was removed, 40 μl/well of serum-free medium was added, and the cells were incubated at 37° C. and 5% CO2 for 5 hours. • c) The medium was replaced with 18 μL/well of HBSS buffer (Hepes 20 mM, 0.1% BSA, 500 μM IBMX). • d) The compound in DMSO was diluted (1/5 dilution, 9+0 dose). • e) 2 μL of the compound in d) was added to 98 μL of HBSS buffer. • f) 1 μL/well of the diluted compound in e) was added to the cells, with a final starting concentration of 1 μM, and the cells were incubated at 37° C. for 1 hour. • g) The cells were stimulated with 1 μL/well of PGE2 (10 mM DMSO stock solution) (final concentration: 10 nM, and DMSO final concentration: 0.2%), and incubated at 37° C. for 30 minutes. • h) After the incubation, 10 μL/well of cAMP-d2 and 10 μL/well of anti-cAMP were added, RT 1 h. • i) HTRF signals (665 nm/615 nm) were read on Envision. Data Analysis: • High control: 1 μM E7046 • Low control: DMSO • Background: 30 μL/well of lysis buffer+10 μL/well of anti-cAMP • Analytical data: original date—background Inhibition %: 100−100×(high control−analytical data)/(high control−low control)

O=C(NC1(C23CC(C(=O)O)(C2)C3)CC1)c1cccc2ccn(Cc3cc4ccccc4o3)c12 [Compound 6, 3-(1-(1-(Benzofuran-2-ylmethyl)-1H-indole-7-carboxamido)cyclopropyl)bicyclo[1.1.1]pentane-1-carboxylic acid]
effect on the body weight of mouse (EMT-6 breast tumor; EMT-6 model, compound 6 alone or in combination with anti-PD-1 antibody, FIG. 6): no significant effect | effect on the EMT-6 breast tumor in mouse (EMT-6 breast tumor; compound 6 30 mg/kg p.o. once a day, alone or in combination with anti-PD-1 antibody (20 mg/kg first, then 10 mg/kg i.p. every 5 days), FIG. 5): good inhibitory effect | hepatocyte CLint at 1 µM [1]: 2.9 µL/min/1e6 cells | effect on the body weight of mouse (CT-26 colorectal tumor [2]; CT-26 model, compound 6 alone or in combination with anti-PD-1 antibody, FIG. 4): no significant effect | effect on the growth of CT-26 tumor in mouse (CT-26 colorectal tumor [2]; compound 6 30 or 150 mg/kg p.o. once a day, alone or in combination with anti-PD-1 antibody 5 mg/kg i.p. Q4Dx3, FIG. 3): good inhibitory effect | effect on the growth of CT-26 tumor (CT-26 colorectal tumor [3]; BALB/c mice, CT26 allograft, administered alone, different doses (compound 6: 10, 30 or 150 mg/kg p.o. once a day), FIG. 1): significant inhibitory effect | effect on CT-26 tumor growth compared with E7046 (CT-26 colorectal tumor [3]; BALB/c mice, CT26 allograft, at the same dose, FIG. 1): significantly better than E7046 | effect on the body weight of mouse (CT-26 colorectal tumor [3]; CT-26 colorectal cancer model, FIG. 2): no significant effect | IC50 [4]: 1.1 nM
